Reference: US12115182B2, “Adenosine A2A agonists for the treatment of cytokine storm syndrome” (priority 2021, dated 2024)
Entries after “also recorded” stand apart in the source; their conditions may differ.

Columns and labels:
[1] = test system: BAL fluid cytokines and chemokines; assay: BAL fluid cytokines/chemokines (31 plex Luminex) in SARS CoV-2-infected K18-hACE2 mice; assay type: in vivo, mouse
Experimental: Apadenoson treatment elicits cytokine and chemokine responses that are associated with a decrease in weight loss. To assess how apadenoson treatment may be delaying the onset of severe symptoms, mice were treated as before with either vehicle (saline) or apadenoson, delivered with a five-hour delay by osmotic pumps, then euthanized on day five post-infection.
BAL Cytokines: BAL fluid was collected with 700 μL of PBS and cells were removed via centrifugation. The BAL fluid was analyzed by a Luminex Magpix by the UVA Flow Cytometry Core facility using a Mouse 31 plex panel. Statistical changes in cytokine levels were analyzed using Welch's ANOVA followed by Dunnett's T3 multiple comparisons (Graphpad Prism 9.0). P values were adjusted for multiple testing using the Holm-Sidak method.

[2] = test system: SARS-CoV-2 strain B.1.351; assay type: in vivo, Golden Syrian hamster
[3] = test system: SARS CoV-2; assay: Viral lung titers (plaque assay) and viral burden (IHC) in K18-hACE2 mice; assay type: in vivo, mouse
Experimental: Viral Lung titers: Titers were determined as described in Moreau et al. (MOREAU et al., Am. J. Trop. Med. Hyg., (2020), 103:1215-1219). Briefly, lungs were homogenized in serum-free DMEM. Titers were determined by infecting Vero C1008, Clone E6 (ATCC CRL-1586) with serial dilutions of the homogenate. After a two-hour incubation, the diluted homogenates were replaced with a liquid overlay of DMEM, 2.5% FBS containing 1.2% Avicel PH-101 (Sigma Aldrich, St. Louis, MO) and incubated at 37° C., 5% CO2. After three days, the overlay was removed, wells were fixed with 10% formaldehyde, and stained with 0.1% crystal violet to visualize plaques. Plaques were counted and PFUs were calculated according to the following equation: Average # of plaques/dilution factor×volume of diluted virus added to the well.
Histology: Tissues were fixed in 10% formalin. To visualize virus in the lungs, slides were stained with SARS-CoV2 specific anti-nucleoprotein antibody (Cat. No. 9099, ProSci, Poway, CA) as per manufacturer's instructions and then scanned at 20× magnification. The percentage of lung tissue infected with virus was calculated (ImageJ, version 1.53K).

[4] = test system: SARS CoV-2; assay: Apadenoson in K18-hACE2 mouse model of COVID-19: survival, weight, clinical scores; conditions: for mice survived (combined survival data): Alzet pump 1.44 ug/kg/h, 1250 PFU
Experimental: K18-hACE2 mice, ranging in age from 17 to 30 weeks were divided into three groups. One group received saline (vehicle), another received apadenoson 18 hours before viral challenge (drug) and a third received apadenoson five hours post viral challenge (drug with delay). The mice were challenged intranasally with 1250 PFU SARS CoV-2. Mouse weight and clinical scores were recorded daily. Mice were euthanized when they met the criteria for euthanasia (see methods) or at the end of the experiment, which was day 12 post viral challenge.
Infection and treatment: Twenty-four hours prior to infecting Tg(K18-hACE2)2Prlmn (Jackson Laboratories) male mice with SARS CoV-2, primed 7-day Alzet® osmotic pumps (Durect, Cuperton, CA) containing saline or drug were implanted subcutaneously (MCCRAY et al., J. Virol., (2007), 81:813-821). In the drug with delay treatment group drug delivery was delayed by 24 hours by adding 2.5 cm long tubing to the pump. Apadenoson was delivered at a rate of 1.5 μg/kg/hr. Uninfected littermates received saline or drug with delay via osmotic pumps. Mice were challenged with 1250 plaque forming units (PFU) of Hong Kong/VM20001061/2020 (NR-52282, BEI Resources) via intranasal route under ketamine/xylazine anesthesia. Mice were examined twice daily for clinical symptoms and scored using the following criteria: weight loss (0-5, in 5% of initial weight loss increments), reduced activity (0-3), ruffled fur appearance and hunched posture (0-2), and an eye closure (0-2). Mice were euthanized when weight was <80% of initial weight or when they scored a maximum in two symptom categories. This experiment was repeated three times, with six animals per treatment group each time. […] Statistical differences in weight loss and clinical scores by treatment group were determined using linear mixed models accounting for day post-infection and the day the mouse died (Ime4 and ImerTest packages (BATES et al., J. Stat. Softw., (2015), 67; KUZNETSOVA et al., J. Stat. Softw., (2021), 82) in R (R Core Team 2021). For mice surviving to the end of the experiment (day 12 post-infection), day of death=15 was used. All mouse work was approved by the University's Institutional Animal Care and Use Committee and all procedures were performed in the University's certified animal Biosafety Level Three laboratory, which is fully accredited by the Association for the Assessment and Accreditation of Laboratory Animal Care, International (AAALAC).

[5] = test system: MHS cells; assay: RAGE shedding in alveolar macrophages (MHS): Western blot of sRAGE, immunofluorescence of RAGE; assay type: cell-based, mouse; conditions: GM6001 2 nM, regadenoson 100 nM; for PMA-induced shedding of cell membrane-anchored RAGE: PMA-treated MHS cells, ATL146e 10 nM
[6] = test system: COVID-19 patients; conditions: cited from earlier work
[7] = drug with delay treatment group
[8] = PI day 7, compared to control group
[9] = drug and drug with delay-treated groups

## CCNC(=O)[C@H]1O[C@@H](n2cnc3c(N)nc(C#CC[C@H]4CC[C@H](C(=O)OC)CC4)nc32)[C@H](O)[C@@H]1O [Apadenoson]
[1]; BAL fluid, day five post-infection
  cytokines/chemokines not different between uninfected, vehicle-infected control and drug with delay-infected mice: 18/31
[1]; [7]
  levels of eight cytokines and chemokines (MIG, G-CSF, Eotaxin, MIP1b, VEGF, INF-g, TNF-a, KC) in BAL fluid: not significantly different from uninfected mice
[1]; drug with delay-infected group compared to vehicle, p=0.0223
  IP-10 level in BAL fluid: statistically higher
[1]; drug with delay-infected group compared to vehicle, p=0.0351
  MCP-1 level in BAL fluid: statistically higher
[2]; [8]
  albumin leakage into BAL: slight decrease; also recorded: did not significantly
  plasma IL13: slightly elevated; also recorded: did not significantly
[2]; RT-qPCR
  time course of the disease or viral titer detected in throat swabs: did not significantly
[2]; compared to control
  plasma IL4: depressed; also recorded: did significantly
[2]; daily weights, vs control group
  decrease in weight gain: did not significantly
[2]; day 7
  histologic distribution or severity of lung pathology: did not significantly
[2]; day 7, compared to control
  plasma Transforming Growth Factor beta (TGFb): decreased; also recorded: did significantly
  spread of virus to olfactory bulb (brain): decreased; also recorded: did significantly
[2]; whole body plethysmography, PI day 7
  respiratory physiology parameters (EF50, Rpef, Penh): did not significantly
[3]; both drug treatment groups
  viral titers in lungs of surviving mice: below the limit of detection
[3]; [7]
  average viral titer of lung homogenates: trended lower, but was not significant; also recorded: trended lower
[3]; drug with delay treatment group, p=0.0012
  viral burden in lungs by IHC staining: significantly lower
[4]; [9]
  clinical scores compared to vehicle: statistically significantly lower
  weight loss compared to vehicle: less weight loss
[4]; drug with delay vs vehicle
  weight loss and clinical scores on day five post-infection: not statistically different between groups
[4]; drug with delay
  mice survived (combined survival data): 5/12
[4]; drug with delay-treated group, p=0.0002
  survival curve compared to vehicle: significantly different than vehicle
[4]; drug with no delay
  mice survived (combined survival data): 4/12
[4]; drug-treated group, p=0.066
  survival curve compared to vehicle: did not differ significantly
[5]
  PMA-induced shedding of cell membrane-anchored RAGE: partially inhibited
[5]; listed as apadensoson
  PMA-induced shedding of cell membrane-anchored RAGE: suppressed the shedding of RAGE

## CNC(=O)[C@H](Cc1c[nH]c2ccccc12)NC(=O)[C@@H](CC(=O)NO)CC(C)C [GM6001]
[5]; LPS 75 ng/ml, apadenoson 10 nM
  sRAGE shedding on LPS-treated MHS cells: inhibited sRAGE shedding
[5]; PMA (20 nM)-treated MHS cells, 24 hours
  levels of sRAGE in the conditional media (Western blot): decreased
[5]
  PMA-induced shedding of cell membrane-anchored RAGE: suppressed the shedding of RAGE; also recorded: partially blocked

## Nc1ncnc2c1ncn2[C@@H]1O[C@H](CO)[C@@H](O)[C@H]1O [adenosine]
[6]; aerosolized, twice daily, in 13 out of 14 patients
  increase in PaO2/FiO2-ratio: > 30%
[6]; inhaled adenosine group, 1/14, control group 11/52 (21%)
  death rate: 7%
